Data taken from paper PMC11283233, “A comparative analysis of NADPH supply strategies in Saccharomyces cerevisiae: Production of D-xylitol from D-xylose as a case study” (Metabolic Engineering Communications, 2024).

Columns and labels:
[1] = biological target: T1, Zwf1 (glucose-6-phosphate dehydrogenase) (Saccharomyces cerevisiae, UniProt P11412); experiment: NADP+ reduction at […] nm, crude extract of overexpressing strain PRY63; assay type: biochemical; details: 2.5 mM glucose-6-phosphate, 0.67 mM NADP+, 50 mM imidazole pH 7.0, 100 mM KCl, 10 mM MgCl2, 0.1 mM EDTA
T1 construct: full-length, untagged; overexpressed from truncated HXT7 promoter at the genomic ZWF1 locus; crude yeast extract
T1 sequence (P11412 2-505): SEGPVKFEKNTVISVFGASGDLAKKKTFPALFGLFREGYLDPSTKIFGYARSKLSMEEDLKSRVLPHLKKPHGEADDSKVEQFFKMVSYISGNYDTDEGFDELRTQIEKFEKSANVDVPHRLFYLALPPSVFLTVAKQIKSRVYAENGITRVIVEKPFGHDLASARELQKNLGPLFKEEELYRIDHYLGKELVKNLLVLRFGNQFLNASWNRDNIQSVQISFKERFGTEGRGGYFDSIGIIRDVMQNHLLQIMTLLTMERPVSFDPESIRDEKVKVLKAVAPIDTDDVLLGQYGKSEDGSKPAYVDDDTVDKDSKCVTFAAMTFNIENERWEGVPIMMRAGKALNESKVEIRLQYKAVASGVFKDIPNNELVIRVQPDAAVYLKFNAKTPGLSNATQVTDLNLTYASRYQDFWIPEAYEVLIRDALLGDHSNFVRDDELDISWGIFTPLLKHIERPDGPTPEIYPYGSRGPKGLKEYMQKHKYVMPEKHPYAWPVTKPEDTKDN

[2] = biological target: T2, Zwf1 (glucose-6-phosphate dehydrogenase) (Saccharomyces cerevisiae, UniProt P11412, DEL59-59); experiment: NADP+ reduction at […] nm, crude extract of overexpressing strain PRY48 (ZWF1*); assay type: biochemical; details: 2.5 mM glucose-6-phosphate, 0.67 mM NADP+, 50 mM imidazole pH 7.0, 100 mM KCl, 10 mM MgCl2, 0.1 mM EDTA
T2 construct: full-length, untagged; overexpressed from truncated HXT7 promoter at the genomic ZWF1 locus; crude yeast extract
T2 sequence (P11412 with tags, fused parts or gaps DEL59-59): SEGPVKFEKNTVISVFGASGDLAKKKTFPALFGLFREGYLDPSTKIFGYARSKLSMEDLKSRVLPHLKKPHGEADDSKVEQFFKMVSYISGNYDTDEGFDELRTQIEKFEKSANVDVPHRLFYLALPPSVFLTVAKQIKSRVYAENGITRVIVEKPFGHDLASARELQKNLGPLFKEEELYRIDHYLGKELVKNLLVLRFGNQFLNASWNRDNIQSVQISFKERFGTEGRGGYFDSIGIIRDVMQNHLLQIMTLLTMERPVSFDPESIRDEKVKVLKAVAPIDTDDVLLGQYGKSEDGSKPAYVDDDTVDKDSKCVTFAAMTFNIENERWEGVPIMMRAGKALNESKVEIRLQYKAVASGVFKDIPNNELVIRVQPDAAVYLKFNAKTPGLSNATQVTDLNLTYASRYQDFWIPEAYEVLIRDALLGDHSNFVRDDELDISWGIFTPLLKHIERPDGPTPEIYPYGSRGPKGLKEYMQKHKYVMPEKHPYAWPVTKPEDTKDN

Xyl1 (coXYL1) = biological target: T3, Xyl1 (coXYL1) (Scheffersomyces stipitis, UniProt P31867); experiment: xylitol formation in cells, HPLC, versus empty vector; assay type: cell-based; details: whole-cell fermentation, SC medium, 30 g/L glucose, 20 g/L xylose, 30 °C; NADPH-dependent
T3 construct: full-length, codon-optimized gene on p425H7, expressed in S. cerevisiae PRY39 (gre3 deleted); intact cells
T3 sequence (P31867 1-318): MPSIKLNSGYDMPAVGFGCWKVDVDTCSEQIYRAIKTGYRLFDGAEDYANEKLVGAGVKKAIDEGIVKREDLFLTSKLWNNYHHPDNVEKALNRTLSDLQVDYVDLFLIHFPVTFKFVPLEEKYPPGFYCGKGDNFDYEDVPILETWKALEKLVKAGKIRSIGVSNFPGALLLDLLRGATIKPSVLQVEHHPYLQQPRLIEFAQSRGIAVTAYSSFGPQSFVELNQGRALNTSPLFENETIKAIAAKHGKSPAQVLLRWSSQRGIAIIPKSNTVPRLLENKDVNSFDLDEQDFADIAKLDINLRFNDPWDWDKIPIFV

Gre3 (coGRE3, ScGRE3) = biological target: T4, Gre3 (coGRE3, ScGRE3) (Saccharomyces cerevisiae, UniProt P38715); experiment: as above; assay type: cell-based; details: whole-cell fermentation, SC medium, 30 g/L glucose, 20 g/L xylose, 30 °C; NADPH-dependent
T4 construct: full-length, codon-optimized or native gene on p425H7, expressed in S. cerevisiae PRY39 (gre3 deleted); intact cells
T4 sequence (P38715 2-327): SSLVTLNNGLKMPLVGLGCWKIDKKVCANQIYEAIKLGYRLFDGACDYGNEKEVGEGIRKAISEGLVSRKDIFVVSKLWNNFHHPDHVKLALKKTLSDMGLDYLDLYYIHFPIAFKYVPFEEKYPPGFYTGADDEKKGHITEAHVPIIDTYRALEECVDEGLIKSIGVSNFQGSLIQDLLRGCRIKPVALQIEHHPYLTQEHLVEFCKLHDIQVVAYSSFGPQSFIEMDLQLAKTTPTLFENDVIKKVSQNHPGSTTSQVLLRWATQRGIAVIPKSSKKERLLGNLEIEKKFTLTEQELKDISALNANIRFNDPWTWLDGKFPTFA

Row | Compound | NADP+ reduction at 340 nm, crude extract of overexpressing strain PRY63 [1] | NADP+ reduction at 340 nm, crude extract of overexpressing strain PRY48 (ZWF1*) [2] | xylitol formation in cells, HPLC, versus empty vector (Xyl1 (coXYL1)) | xylitol formation in cells, HPLC, versus empty vector (Gre3 (coGRE3, ScGRE3))
1 | NC(=O)c1ccc[n+]([C@@H]2O[C@H](COP(=O)(O)OP(=O)(O)OC[C@H]3O[C@@H](n4cnc5c(N)ncnc54)[C@H](OP(=O)(O)O)[C@@H]3O)[C@@H](O)[C@H]2O)c1 [NADP^+] | The reduction of NADP^+ was recorded by continuously measuring the change of the absorbance | the deletion of Glu59 apparently led to a higher Zwf1 activity |  | 
2 | O=P(O)(O)OC[C@H]1OC(O)[C@H](O)[C@@H](O)[C@@H]1O (some centres unmarked) [glucose-6-phosphate] | A G6PDH assay was performed in crude extracts from the engineered strains |  |  | 
3 | OC1OC[C@@H](O)[C@H](O)[C@H]1O (some centres unmarked) [xylose] |  |  | The expression of all XR constructs led to considerably high xylitol titers | The expression of all XR constructs led to considerably high xylitol titers
